Experimental data published in patent US20250065017A1, “Fractionating Extracellular Matrix to Modulate Bioactivity and the Host Response” (University of Pittsburgh - Of the Commonwealth System of …, priority 2014, published 2025).

Key:
[1] = tested on: THP1 macrophages; assay: PGE2 and PGF2α secretion (ELISA); type: cell-based, human; details: coadministered along with UBM hydrogel
Protocol: (§1) THP-1 human monocytes were obtained from the American Tissue Culture Collection (ATCC, Manassas, VA) and maintained in RPMI, 10% FBS, 1% penicillin/streptomycin, 2 mM L-glutamine, and 1 mM sodium pyruvate in a humidified atmosphere at 37° C. with 5% CO2. For TNFα, PGE2, PGF2α, IL-1β, and IL-1RA experiments, 500,000 THP-1 cells/well were plated with 320 nM phorbol 12-myristate 13-acetate (PMA) for 24 hours to induce differentiation into macrophages. Adherent macrophages were washed in PBS and placed in fresh media, followed by a 24 hour incubation in fresh media to acquiesce. Human PSCs were isolated from blood vessels in fetal muscle according to the methods outlined by Crisan et al. [Purification and long-term culture of multipotent progenitor cells affiliated with the walls of human blood vessels: myoendothelial cells and pericytes. […]
(§2) Macrophages prepared as described in the Cell Culture section were treated with UBM digest (290 μg/mL) or fractionated components (80 μg/mL soluble, 170 μg/mL structural) for 48 (TNFα, IL-1β and IL-1RA), or 72 (PGE2 and PGF2α) hours. […] Commercially available ELISA kits were used to determine the absolute quantities of TNFα (BD Bioscience, San Jose, CA), PGE2 (Enzo, Farmingdale, NY), PGF2α (Enzo, Farmingdale, NY), IL-1β (BD Bioscience, San Jose, CA), and IL1-RA (R&D Systems, Minneapolis, MN) according to the manufacturer's instructions. […]

[2] = tested on: THP-1 macrophages; assay: TNFα and IL-1β secretion after treatment (ELISA); type: cell-based, human; details: 48 hours treatment
Protocol: as §1, §2

Compound	PGE2 secretion on co-incubation with COX2 inhibitor [1]	production of TNFα and IL-1β above control [2]
CS(=O)(=O)Nc1ccc([N+](=O)[O-])cc1OC1CCCCC1 [NS-398]	abrogated PGE2 secretion down to control levels	–
lipopolysaccharide [LPS]	–	100-1000 fold
